According to ChEMBL document CHEMBL1201862, “PubChem BioAssay data set” (2004):
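Assay format: 96-well plates, 48-hour exposure. Abbreviation: GI50, concentration required for 50% inhibition of growth.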 Calls of active or inactive are those of the source. Cut-off read from the data, not from the text of the source: active = GI50 up to about 1.1 µM and inactive = higher.

Columns and labels:
Assay in all cases: inhibition of tumour cell growth, NCI panel, 48 h
OVCAR-5 = test system: OVCAR-5
NCI-H23 = test system: NCI-H23
SK-MEL-2 = test system: SK-MEL-2
NCI-H460 = test system: NCI-H460
OVCAR-8 = test system: OVCAR-8
HT-29 = test system: HT-29
RPMI-8226 = test system: RPMI-8226
OVCAR-3 = test system: OVCAR-3
HOP-92 = test system: HOP-92
SNB-19 = test system: SNB-19
OVCAR-4 = test system: OVCAR-4
COLO 205 = test system: COLO 205
SK-MEL-28 = test system: SK-MEL-28
SF-268 = test system: SF-268
UO-31 = test system: UO-31
LOX IMVI = test system: LOX IMVI
CAKI-1 = test system: CAKI-1

Compound | GI50 (OVCAR-5) | GI50 (NCI-H23) | GI50 (SK-MEL-2) | GI50 (NCI-H460) | GI50 (OVCAR-8) | GI50 (HT-29) | GI50 (RPMI-8226) | GI50 (OVCAR-3) | GI50 (HOP-92) | GI50 (SNB-19) | GI50 (OVCAR-4) | GI50 (COLO 205) | GI50 (SK-MEL-28) | GI50 (SF-268) | GI50 (UO-31) | GI50 (LOX IMVI) | GI50 (CAKI-1)
COC(=O)C1=C(C(=O)OC)C23C=CC=CC24C(C(=O)OC)=C(C(=O)OC)C4C1C3 (stereo unspecified) | > 100 µM (inactive) | > 100 µM (inactive) | > 100 µM (inactive) | > 100 µM (inactive) | > 100 µM (inactive) | > 100 µM (inactive) | 51.2 µM (inactive) | > 100 µM (inactive) | > 100 µM (inactive) | > 100 µM (inactive) | > 100 µM (inactive) | > 100 µM (inactive) | > 100 µM (inactive) | > 100 µM (inactive) | > 100 µM (inactive) | – | –
C[Si](C)(C)/C=C\CCCN1C(=O)CCC1=O | 86.5 µM (inactive) | > 100 µM (inactive) | > 100 µM (inactive) | > 100 µM (inactive) | > 100 µM (inactive) | > 100 µM (inactive) | > 100 µM (inactive) | > 100 µM (inactive) | > 100 µM (inactive) | > 100 µM (inactive) | – | > 100 µM (inactive) | > 100 µM (inactive) | > 100 µM (inactive) | > 100 µM (inactive) | > 100 µM (inactive) | –
C=C1CC(CC)(CCN2C(=O)c3ccccc3C2=O)OC1=O (stereo unspecified) | – | 14.1 µM (inactive) | 12.9 µM (inactive) | 69.2 µM (inactive) | 16.4 µM (inactive) | 14.1 µM (inactive) | 22.7 µM (inactive) | – | – | > 10 µM (inactive) | 14.2 µM (inactive) | 16.7 µM (inactive) | – | 1.08 µM (active) | 19.7 µM (inactive) | 14.2 µM (inactive) | 2.09 µM (inactive)
Fc1ccc(C2SCc3nc4ccccc4n32)cc1F (stereo unspecified) | – | 21.1 µM (inactive) | 23.8 µM (inactive) | 37.4 µM (inactive) | 33.8 µM (inactive) | – | 13.3 µM (inactive) | 26.9 µM (inactive) | – | 29.6 µM (inactive) | 18.2 µM (inactive) | 27.6 µM (inactive) | 23.4 µM (inactive) | 50.4 µM (inactive) | 13.6 µM (inactive) | – | 43.1 µM (inactive)
COc1ccccc1NC(=O)CC(=O)NNCC(=O)Nc1nc(-c2ccccc2)cs1 | – | > 100 µM (inactive) | – | > 100 µM (inactive) | > 100 µM (inactive) | > 100 µM (inactive) | > 100 µM (inactive) | > 100 µM (inactive) | – | > 100 µM (inactive) | > 100 µM (inactive) | > 100 µM (inactive) | > 100 µM (inactive) | > 100 µM (inactive) | – | > 100 µM (inactive) | –
O=C(CC1(O)C(=O)Nc2ccc([N+](=O)[O-])cc21)c1ccncc1 (stereo unspecified) | > 100 µM (inactive) | 22.1 µM (inactive) | 85.1 µM (inactive) | 48.6 µM (inactive) | 46.2 µM (inactive) | 34 µM (inactive) | 25.2 µM (inactive) | 25.2 µM (inactive) | – | 54.3 µM (inactive) | 22.1 µM (inactive) | 77.1 µM (inactive) | 32.3 µM (inactive) | 36.7 µM (inactive) | 56.1 µM (inactive) | 15.5 µM (inactive) | –
Cc1nc2ccccc2c(=O)n1/N=C(\N=N\c1ccc(Cl)cc1)c1cccc(-c2ccco2)c1 | – | 21.6 µM (inactive) | – | 37.7 µM (inactive) | 33.1 µM (inactive) | 34.3 µM (inactive) | 19.1 µM (inactive) | – | 16.1 µM (inactive) | – | – | 31.8 µM (inactive) | 16.8 µM (inactive) | 19.7 µM (inactive) | 14.1 µM (inactive) | 28.9 µM (inactive) | 25.5 µM (inactive)
Cc1cc([N+](=O)[O-])ccc1NC(=O)C(=O)C(C(=O)c1ccccc1-c1ccccc1)C1OC(=O)c2ccccc21 (stereo unspecified) | 15.4 µM (inactive) | 25.6 µM (inactive) | 12.6 µM (inactive) | 17 µM (inactive) | 20.8 µM (inactive) | 18.8 µM (inactive) | 24 µM (inactive) | – | 16.9 µM (inactive) | 3.44 µM (inactive) | 26.2 µM (inactive) | 20.8 µM (inactive) | 14.8 µM (inactive) | 21.6 µM (inactive) | 16.6 µM (inactive) | – | 23.8 µM (inactive)
CC(c1ccccc1)C(O)S(=O)(=O)O (stereo unspecified) | > 100 µM (inactive) | > 100 µM (inactive) | > 100 µM (inactive) | 88.3 µM (inactive) | > 100 µM (inactive) | > 100 µM (inactive) | > 100 µM (inactive) | > 100 µM (inactive) | > 100 µM (inactive) | > 100 µM (inactive) | > 100 µM (inactive) | > 100 µM (inactive) | > 100 µM (inactive) | > 100 µM (inactive) | > 100 µM (inactive) | 36.8 µM (inactive) | –
C1CC[N+]23CCCC[N+]2(C1)CCCC3 (stereo unspecified) | > 100 µM (inactive) | > 100 µM (inactive) | > 100 µM (inactive) | > 100 µM (inactive) | > 100 µM (inactive) | > 100 µM (inactive) | > 100 µM (inactive) | > 100 µM (inactive) | – | > 100 µM (inactive) | > 100 µM (inactive) | > 100 µM (inactive) | > 100 µM (inactive) | > 100 µM (inactive) | > 100 µM (inactive) | – | > 100 µM (inactive)
